Some test systems named below: SK-MEL-2; SK-MEL-28; MCF7; HOP-62; KM12; SK-OV-3; NCI-H460; SF-268; K562; UO-31; TK-10; CCRF-CEM; CAKI-1; RPMI-8226; HCT-116; U-251; OVCAR-3; SN12C; OVCAR-5; HL-60.
Experiment in all cases: NCI tumour cell line growth inhibition, 48 h

SMILES strings stand for the structures.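 How tested: cells in 96-well plates exposed to compound for 48 hours at five concentrations. GI50 marks 50% less growth.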 The source made the active and inactive calls. Rule as the data show it: active = GI50 up to about 1.1 µM and inactive = higher.

Consider `CC(C)c1ccc2c(c1)/C(=C1/Nc3ccccc3/C1=N/O)C(=O)N2`, for which the GI50 with SK-MEL-2 is 3.9 µM (inactive); in the assay with SK-MEL-28 it was 13.5 µM (inactive); in the assay with MCF7, 1.69 µM (inactive); in the assay on HOP-62, 10.7 µM (inactive); with KM12, 0.0431 µM (active); with SK-OV-3, 6.55 µM (inactive). The GI50 with NCI-H460 was 4 µM (inactive); in the assay with SF-268 it was 7 µM (inactive); in the assay with K562, 4.07 µM (inactive); with UO-31 it was 3.69 µM (inactive); in the assay with TK-10 it was 9.4 µM (inactive); with CCRF-CEM it was 3.14 µM (inactive). Further, the GI50 with CAKI-1 is 4.29 µM (inactive); in the assay on RPMI-8226, 4.17 µM (inactive); in the assay with HCT-116, 3.76 µM (inactive); with U-251 it was 7.23 µM (inactive); in the assay with OVCAR-3, 7.46 µM (inactive); in the assay with SN12C it was 5.22 µM (inactive). Moreover, the GI50 in the assay on OVCAR-5 was 16.1 µM (inactive).

In the case of `O=C1CS(=O)(=O)C(c2cccc(Oc3ccccc3)c2)N1c1cc(Cl)ccc1Cl` (centres undefined), the GI50 was 14.4 µM (inactive) in the assay on SK-MEL-2; 34.2 µM (inactive) with HL-60; 26.5 µM (inactive) in the assay on SK-MEL-28; 16.1 µM (inactive) with MCF7; 17.8 µM (inactive) with KM12; 24 µM (inactive) in the assay on SK-OV-3. In addition, the GI50 with NCI-H460 was 21.9 µM (inactive); in the assay with SF-268 it was 23.1 µM (inactive); in the assay with K562, 27.4 µM (inactive); in the assay on UO-31, 20.1 µM (inactive); in the assay on TK-10, 30.1 µM (inactive); in the assay on CCRF-CEM it was 15.4 µM (inactive). For the same compound, the GI50 in the assay on HCT-116 is 20.2 µM (inactive); in the assay with U-251 it was 15.7 µM (inactive); in the assay with OVCAR-3, 19 µM (inactive); in the assay on SN12C, 20.7 µM (inactive); in the assay on OVCAR-5 it was 29.6 µM (inactive).

On to `O=C(c1ccc(O)c([N+](=O)[O-])c1)c1ccc(O)c([N+](=O)[O-])c1`, for which the GI50 was > 100 µM (inactive) with SK-MEL-2; 47.2 µM (inactive) in the assay on SK-MEL-28; 93.1 µM (inactive) with MCF7; > 100 µM (inactive) in the assay with HOP-62; 35.2 µM (inactive) with KM12; > 100 µM (inactive) in the assay on SK-OV-3. Also, the GI50 in the assay on NCI-H460 is > 100 µM (inactive); in the assay with SF-268, > 100 µM (inactive); in the assay on K562, 50.1 µM (inactive); in the assay with UO-31, 66.2 µM (inactive); with TK-10 it was > 100 µM (inactive); with CCRF-CEM, 31.9 µM (inactive). For the same compound, the GI50 with CAKI-1 was > 100 µM (inactive); with RPMI-8226, 3.33 µM (inactive); in the assay on HCT-116, > 100 µM (inactive); in the assay on U-251, > 100 µM (inactive); in the assay on OVCAR-3 it was > 100 µM (inactive); in the assay with SN12C, > 100 µM (inactive). For the same compound, the GI50 in the assay on OVCAR-5 was > 100 µM (inactive).

Turning to `CN(CCCNC(=O)c1cn(C)c2c1ccc1cc(Cl)c(Cl)cc12)CCCNC(=O)c1cn(C)c2c1ccc1cc(Cl)c(Cl)cc12`, the GI50 was 16.7 µM (inactive) with SK-MEL-2; 2.47 µM (inactive) in the assay with HL-60; 18.5 µM (inactive) with SK-MEL-28; 5.16 µM (inactive) in the assay on MCF7; 14.3 µM (inactive) in the assay on HOP-62; 5.31 µM (inactive) in the assay with KM12. For the same compound, the GI50 in the assay with SK-OV-3 was 15.2 µM (inactive); in the assay on NCI-H460 it was 3.97 µM (inactive); in the assay with SF-268 it was 13.7 µM (inactive); in the assay with K562 it was 5.41 µM (inactive); in the assay on UO-31, 16.7 µM (inactive); with TK-10, 17.5 µM (inactive). Besides, the GI50 is 8.53 µM (inactive) in the assay with CCRF-CEM; 11.6 µM (inactive) in the assay on CAKI-1; 12.2 µM (inactive) in the assay on HCT-116; 3.03 µM (inactive) in the assay on U-251; 18.2 µM (inactive) with OVCAR-3; 13.6 µM (inactive) with SN12C. In the assay on OVCAR-5, the GI50 is 16.4 µM (inactive).

In the case of `ON[C@@H]1C=C[C@H](n2cnc3c(NC4CC4)ncnc32)C1`, the GI50 in the assay with SK-MEL-2, with SK-MEL-28, in the assay with MCF7, in the assay with HOP-62, with KM12 and in the assay on SK-OV-3 was > 100 µM (inactive) in each case. Moreover, the GI50 with NCI-H460, in the assay on SF-268, with K562, in the assay on UO-31, in the assay with TK-10 and with CCRF-CEM was > 100 µM (inactive) in each case. The GI50 with CAKI-1 was > 100 µM (inactive); in the assay with RPMI-8226, > 100 µM (inactive); in the assay on HCT-116, 86.5 µM (inactive); in the assay on U-251 it was > 100 µM (inactive); with OVCAR-3 it was > 100 µM (inactive); in the assay with SN12C, > 100 µM (inactive). Moreover, in the assay with OVCAR-5, the GI50 is > 100 µM (inactive).

As to `CCOC(=O)C(O)Cc1cnc2ccccc2n1` (centres undefined), the GI50 with SK-MEL-2 is > 100 µM (inactive); with SK-MEL-28, > 100 µM (inactive); in the assay with MCF7, 80.7 µM (inactive); in the assay on HOP-62, > 100 µM (inactive); with KM12 it was > 100 µM (inactive); with SK-OV-3 it was > 100 µM (inactive). Further, the GI50 in the assay on NCI-H460 is 92.3 µM (inactive); in the assay with SF-268, > 100 µM (inactive); with K562, > 100 µM (inactive); in the assay on UO-31 it was > 100 µM (inactive); in the assay with TK-10, > 100 µM (inactive); in the assay on CCRF-CEM it was 44.9 µM (inactive). The GI50 in the assay with CAKI-1, in the assay on RPMI-8226, in the assay on HCT-116, in the assay on U-251, in the assay on OVCAR-3 and in the assay on SN12C was > 100 µM (inactive) throughout. The GI50 with OVCAR-5 was > 100 µM (inactive).

With `COc1cc2c(cc1OC)C1=Cc3cc(OC)c(OC)cc3C(C)N1C=C2` (centres undefined), the GI50 with HL-60 is > 100 µM (inactive); in the assay on SK-MEL-28 it was 63.2 µM (inactive); in the assay on MCF7, 21 µM (inactive); in the assay on HOP-62, 44.2 µM (inactive); with KM12, 74.8 µM (inactive); in the assay on SK-OV-3, > 100 µM (inactive). The GI50 in the assay on NCI-H460 is 47.1 µM (inactive); in the assay on SF-268, 21.5 µM (inactive); with K562, 25.9 µM (inactive); in the assay with UO-31, 55.1 µM (inactive); in the assay on TK-10, 83.4 µM (inactive); in the assay with CCRF-CEM, 27.3 µM (inactive). Moreover, the GI50 in the assay with RPMI-8226 was 40 µM (inactive); with HCT-116, 50.2 µM (inactive); in the assay with U-251 it was 37.2 µM (inactive); with OVCAR-3, 32.1 µM (inactive); in the assay on SN12C it was 87.5 µM (inactive); with OVCAR-5, > 100 µM (inactive).

Take `C=C1C(=O)O[C@H]2C1C[C@H](O)/C(C)=C/CC[C@@]1(C)O[C@H]21` (some centres undefined): the GI50 with SK-MEL-2 was 15.2 µM (inactive); in the assay with SK-MEL-28, 23.8 µM (inactive); with MCF7, 13.2 µM (inactive); in the assay with HOP-62, 33.7 µM (inactive); in the assay with KM12 it was 14.7 µM (inactive); with SK-OV-3, 36.5 µM (inactive). The GI50 in the assay with NCI-H460 is > 10 µM (inactive); in the assay on SF-268, 29.4 µM (inactive); in the assay on K562, 8.53 µM (inactive); with UO-31 it was 14.8 µM (inactive); with TK-10, 15.6 µM (inactive); in the assay on CCRF-CEM, 3.04 µM (inactive). For the same compound, the GI50 was 14.5 µM (inactive) in the assay with CAKI-1; 5.2 µM (inactive) with RPMI-8226; 14.8 µM (inactive) with HCT-116; > 100 µM (inactive) in the assay on U-251; 18.2 µM (inactive) in the assay on SN12C; 19.1 µM (inactive) in the assay with OVCAR-5.

With `CC(C)(C)OC/C=C(\Br)CO`, the GI50 in the assay on SK-MEL-2 was > 100 µM (inactive); in the assay on SK-MEL-28, > 100 µM (inactive); in the assay with MCF7, > 100 µM (inactive); in the assay on HOP-62, > 100 µM (inactive); in the assay on KM12, 41.6 µM (inactive); with SK-OV-3, > 100 µM (inactive). Also, the GI50 in the assay on NCI-H460, in the assay on SF-268, in the assay on K562, in the assay on UO-31, in the assay with CCRF-CEM and in the assay with CAKI-1 was > 100 µM (inactive) in each case. Besides, the GI50 in the assay on RPMI-8226, with HCT-116, in the assay on U-251, in the assay on OVCAR-3, in the assay on SN12C and with OVCAR-5 was > 100 µM (inactive) in each case.

As to `NC(=O)N/N=C1/c2ccccc2-n2nccc21`, the GI50 with SK-MEL-2 is > 100 µM (inactive); with HL-60, 8.59 µM (inactive); with SK-MEL-28, > 100 µM (inactive); with MCF7, 21.5 µM (inactive); in the assay on HOP-62, 70.1 µM (inactive); in the assay with KM12 it was > 100 µM (inactive). For the same compound, the GI50 was > 100 µM (inactive) in the assay on SK-OV-3; 45.1 µM (inactive) in the assay with NCI-H460; 87.1 µM (inactive) with SF-268; 75.7 µM (inactive) in the assay on K562; > 100 µM (inactive) with TK-10; 37.6 µM (inactive) with CCRF-CEM. Also, the GI50 in the assay with CAKI-1 was 52.5 µM (inactive); in the assay with HCT-116, 30.8 µM (inactive); in the assay with U-251 it was > 100 µM (inactive); with OVCAR-3, 40.7 µM (inactive); in the assay on SN12C it was 89.9 µM (inactive); in the assay with OVCAR-5, > 100 µM (inactive).

These data come from ChEMBL document CHEMBL1201862, “PubChem BioAssay data set” (2004).
